In PubChem BioAssay AID1259321 (Sanford-Burnham Center for Chemical Genomics, 2017) one finds IC50 data, which are given here for 91 compounds.

This assay deals with Nuclear receptor subfamily 1 group D member 1 (Homo sapiens) (UniProt P20393). Briefly: Rev-erbα–DNA interaction modulators – biochemical, FITC-DNA, fluorescence polarization, dose response (AID 1259321). Particulars: Rev-erb alpha-FITC-DNA binding. In general terms: Fluorescence polarisation rises when a labelled molecule tumbles more slowly, as on binding a larger partner.

The structures appear in SMILES notation. The source made the active and inactive calls.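 How the source made its calls: active means half-maximal concentration for changing protein binding to DNA, from the fitted dose curve, below 10 micromolar; inactive means the rest.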 Some results are limits rather than exact numbers.

Sequence of Nuclear receptor subfamily 1 group D member 1 (Homo sapiens) (P20393 whole entry, looked up): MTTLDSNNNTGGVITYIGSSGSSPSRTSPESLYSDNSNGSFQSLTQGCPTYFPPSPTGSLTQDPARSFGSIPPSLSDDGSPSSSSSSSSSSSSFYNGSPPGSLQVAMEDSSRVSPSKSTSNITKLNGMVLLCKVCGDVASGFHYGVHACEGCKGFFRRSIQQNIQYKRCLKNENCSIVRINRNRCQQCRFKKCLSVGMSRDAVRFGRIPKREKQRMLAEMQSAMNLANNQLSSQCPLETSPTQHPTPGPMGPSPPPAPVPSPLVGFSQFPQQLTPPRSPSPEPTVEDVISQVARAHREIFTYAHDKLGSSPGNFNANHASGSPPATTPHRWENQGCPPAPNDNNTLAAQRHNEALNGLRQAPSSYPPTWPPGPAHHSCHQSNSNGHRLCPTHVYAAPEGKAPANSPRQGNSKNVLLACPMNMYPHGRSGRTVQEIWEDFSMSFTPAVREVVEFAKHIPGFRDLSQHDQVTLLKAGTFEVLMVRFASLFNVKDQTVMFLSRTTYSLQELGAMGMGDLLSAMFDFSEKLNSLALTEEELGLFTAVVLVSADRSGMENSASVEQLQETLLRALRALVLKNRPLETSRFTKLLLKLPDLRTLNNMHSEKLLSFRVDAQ

By IC50 is commonly meant the concentration that inhibits the measured activity by half. `COc1ccc(/C=C2/SC(=O)N(CCC(=O)Nc3ccccc3)C2=O)cc1OC`: the IC50 was 9.31 µM.

As to `COc1cc(/C=C(\C#N)c2nc3ccccc3[nH]2)cc(OC)c1O`, the IC50 entry is “inactive”.

As to `CCCCOC(=O)CSc1nc(N)c(C#N)c(-c2ccc(OCC)cc2)c1C#N`, the IC50 entry is “inactive”.

On to `C[n+]1ccc(/C=C/c2c[nH]c3ccc(F)cc23)cc1`, for which the IC50 was > 40 µM (inactive).

As for `Cc1cccc(N2C(=O)c3cccc4c(N)ccc(c34)C2=O)c1`, the IC50 is 6.19 µM.

As for `CCc1cc2cc3c(cc2nc1SCC(=O)Nc1cc(C)on1)OCO3`, the IC50 is 3.31 µM.

For the compound `COc1ccc(NC(=O)c2sc3cc(C(F)(F)F)cnc3c2-c2cccs2)cc1`, the IC50 was > 40 µM (inactive).

Take `Cc1nc(SCC(=O)NCCc2ccccc2)c2oc3ccccc3c2n1`: the IC50 was 4.25 µM.

In the case of `CN1C(=O)CSC1=NCC12CC3CC(CC(C3)C1)C2`, the IC50 was 5.32 µM.

For `COc1cc2c(cc1OC)-c1cc3ccc4c(c3c[n+]1CC2)OCO4`, the IC50 result is “inactive”.

In the case of `COc1cccc(-c2nc(CS(=O)(=O)CC(=O)NCCCc3ccccc3)c(C)o2)c1`, the half-inhibitory concentration (IC50) was 7.77 µM.

For the compound `Cc1ccc2c(c1C)NC(=O)CC(c1ccccc1O)=N2`, the IC50 is > 40 µM (inactive).

Turning to `Cc1cc(C(C)c2ccccc2)c(O)c(CN2CCOCC2)c1C` (stereo unspecified), the IC50 entry was “inactive”.

In the case of `COc1ccc2c(/C=C/c3cc[n+](C)cc3)c[nH]c2c1`, the IC50 entry was “inactive”.

Consider `Nc1ccc2nc3c(=O)n(CCc4ccccc4)c(=O)[nH]c3nc2c1`, for which the IC50 is 2.89 µM.

Regarding `O=C(CSc1ncnc2c1oc1ccccc12)Nc1cccc(Cl)c1`, the IC50 is 4.59 µM.

For the compound `COc1ccc(Cl)cc1NC(=O)c1[nH]c(C)c(C(C)=O)c1C`, the IC50 is 6.1 µM.

In the case of `Cc1cc(C)cc(N2CC(O)=C(c3nc4ccccc4c(=O)[nH]3)C2=N)c1`, the IC50 is 2.99 µM.

Regarding `C=CCc1cccc(C2Nc3ccccc3C(=O)N2O)c1O` (stereo unspecified), the IC50 is 7.11 µM.

As for `COc1ccc(NC(=O)CSc2nc(-c3ccc(C)cc3)cc(C(F)(F)F)c2C#N)cc1`, the IC50 was 0.675 µM.

Regarding `CCOc1ccc(CNC(=O)C2CCN(c3nnc(C)c4c(C)n(-c5ccc(C)cc5)nc34)CC2)cc1`, the IC50 result is “inactive”.

With `O=C(Nc1ccccc1)c1cc2c(=O)c3ccccc3oc2nc1C(F)(F)F`, the IC50 is 6.94 µM.

On to `CCOc1ccc(NC(=O)CNC(=O)c2nn(-c3ccc(OC)c(OC)c3)c(=O)c3ccccc23)cc1`, for which the IC50 was 7.23 µM.

With `Cc1c(C(=O)Nc2ccncc2)sc2nc(-c3ccc(F)cc3)cn12`, the IC50 is 3.76 µM.

With `COc1ccc2c(c1)c(=O)oc1cc(OCC(=O)NC3CC3)ccc12`, the IC50 was 6.09 µM.

As to `CC1(C)Cc2c(c(N3CCOCC3)nc3sc4c(NN)ncnc4c23)CS1`, the IC50 was > 40 µM (inactive).

As for `Cc1cc(=O)oc2cc(OCC3CC(c4ccc(Cl)cc4)=NO3)ccc12` (stereo unspecified), the IC50 is 8.95 µM.

With `COc1ccc(C(=O)c2ccc(OC)c(Br)c2)cc1Br`, the IC50 was > 40 µM (inactive).

For `CN(C)c1ccc(/C=C/c2cc[n+](C)cc2)cc1`, the IC50 was 3.47 µM.

On to `O=S(=O)(c1ccc2nc(N3CCN(c4ccccc4)CC3)ccc2c1)N1CCCCC1`, for which the IC50 result is “inactive”.

Take `CN1C(=O)C(=Cc2ccc(N3CCCCCC3)o2)C(=O)N(C)C1=S`: the IC50 entry is “inactive”.

For the compound `CC(=O)OCC1OC(n2c(-c3ccc(Cl)cc3)ccc(C#N)c2=S)C(OC(C)=O)C(OC(C)=O)C1OC(C)=O` (stereo unspecified), the IC50 entry was “inactive”.

For the compound `COc1cc(C(=O)Nc2cccc(-c3nc4cc(C)ccc4o3)c2)cc(OC)c1OC`, the IC50 was 4.32 µM.

With `O=[N+]([O-])c1ccc(-c2nc(-c3cccs3)c(-c3cccs3)[nH]2)cc1`, the IC50 entry is “inactive”.

Consider `Cc1nc(NCCc2ccc(Cl)cc2)c2nnn(Cc3ccccc3)c2n1`, for which the IC50 was 1.91 µM.

`CCOCCCn1c(=S)[nH]c2cc(C(=O)NCCc3ccccc3)ccc2c1=O`: the IC50 was 3.56 µM.

Turning to `COc1cc(OC)cc(C(=O)OCc2cc3ccccc3[nH]c2=O)c1`, the IC50 result was “inactive”.

Take `Cc1ccccc1C(=O)N=c1ccn(-c2nc3ccccc3nc2NS(=O)(=O)c2ccc(F)cc2)cc1`: the IC50 is 5.69 µM.

For the compound `CC1=Nc2ccccc2/C1=C/c1sc(=S)n(-c2cccc(C(=O)O)c2)c1O`, the IC50 was > 40 µM (inactive).

Regarding `COc1cc2oc(=O)cc(-c3ccc(-c4ccc(CO)cc4)cc3)c2c(OC)c1OC`, the IC50 was 5.84 µM.

For `O=C(CSc1nc2ccccc2c(=O)n1-c1ccc(F)cc1)Nc1ccc(Cl)c(S(=O)(=O)N2CCOCC2)c1`, the IC50 was 2.38 µM.

In the case of `CN(C)c1ccc(/C=C2\NC(=S)N(Cc3ccccc3)C2=O)cc1`, the IC50 is > 40 µM (inactive).

Take `Cc1cccc2cc(C#N)c(SCC#N)nc12`: the IC50 is > 40 µM (inactive).

As for `Cc1ccc(/C=C/c2ccc(N(C)C)cc2)[n+](C)c1`, the IC50 is 9.09 µM.

For the compound `CCC[C@H]1[C@@H](N(C)Cc2cccs2)CC[C@@]23CCCN2C(=O)CCC[C@@H]13`, the IC50 result was “inactive”.

On to `Cc1c(Cl)cccc1NC(=O)Cn1cc(C(F)(F)F)cc(Cl)c1=O`, for which the IC50 is > 40 µM (inactive).

As to `CCOc1ccc(NC(=O)CSc2nc(C3CC3)nc3ccccc23)cc1`, the IC50 was 5.32 µM.

As to `C=CCn1c(=NC(=O)c2cccs2)sc2cc(NC(C)=O)ccc21`, the IC50 entry was “inactive”.

For `COc1ccc(C2=NN(C(=O)CSc3ncccn3)C(c3cccc(OC)c3OC)C2)cc1` (stereo unspecified), the IC50 is 1.5 µM.

For the compound `O=C(CSc1nnc(-c2cccs2)n1-c1cccc(Cl)c1)c1cccc2c1OCCO2`, the IC50 was 2.25 µM.

As for `CCOC(=O)c1cccc2c(=O)c(C(=O)c3ccc(Cl)cc3)c(C(=O)OC)[nH]c12`, the IC50 was > 40 µM (inactive).

As to `Cc1ccc(-n2c(N)c(C#N)c(-c3ccccc3)c(C#N)c2=O)cc1`, the IC50 is > 40 µM (inactive).

On to `COc1ccc(-c2cc(C(=O)Nc3cccnc3Cl)no2)cc1OC`, for which the IC50 was 1.92 µM.

For the compound `CC1=NN(c2ccccc2)C(=O)/C1=C\C=C1\N(C)c2ccccc2C1(C)C`, the IC50 result was “inactive”.

Regarding `COC(=O)c1ccc(C(=O)OC)c(NC(=O)N2c3ccccc3Sc3ccccc32)c1`, the IC50 was > 40 µM (inactive).

Take `COc1ccc(Cl)cc1CC1(C)C(=O)Nc2ccc(-c3ccccc3OC)cc21` (stereo unspecified): the IC50 is 3.44 µM.

Regarding `CCOC(=O)c1cc(C(=O)OCC)c2cc(Br)ccc2n1`, the IC50 result is “inactive”.

Turning to `Cc1ccc(CSc2nc3ccncc3n2CC(=O)Nc2cc(C)cc(C)c2)cc1`, the IC50 was > 40 µM (inactive).

With `COC(=O)Cn1c(=NC(=O)c2ccc(OC)c(OC)c2)sc2cc(OC)ccc21`, the IC50 is > 40 µM (inactive).

Turning to `CCOc1cccc2sc(NC(=O)c3ccc(Br)s3)nc12`, the IC50 is > 40 µM (inactive).

In the case of `CCCc1cc(=O)oc2cc(C)cc(OCC(=O)Nc3ccc(S(N)(=O)=O)cc3)c12`, the IC50 is > 40 µM (inactive).

For `COc1ccc2cc(OCC(=O)NNC(=O)Nc3ccc(F)cc3)ccc2c1`, the IC50 was > 40 µM (inactive).

`Cc1ccc(NC(=O)c2sc(Cl)nc2-c2ccccc2)cc1C`: the IC50 entry is “inactive”.

Regarding `O=C(O)CN1C(=O)/C(=C\c2cn(CC(=O)N3CCOCC3)c3ccccc23)SC1=S`, the IC50 was 9.92 µM.

`COc1ccccc1N=Nc1c(O)[nH]c(=S)[nH]c1=O`: the IC50 was > 40 µM (inactive).

With `O=c1c2ccccc2nc2sc(Nc3cccc(Cl)c3)nn12`, the IC50 is 3.87 µM.

In the case of `COc1cccc(NC(=O)CSc2nc3ncc(Br)cc3[nH]2)c1`, the IC50 was 1.3 µM.

For `O=C(CSc1nnc(-c2cccs2)n1-c1ccccc1)N1CCCc2ccccc21`, the IC50 was > 40 µM (inactive).

Take `CCCN1C(=O)S/C(=C/c2ccc(N3CCOCC3)o2)C1=O`: the IC50 is 5.84 µM.

On to `Cn1c(SCC(=O)Nc2cccc(F)c2)nnc1-c1cc2ccccc2o1`, for which the IC50 entry is “inactive”.

As to `CCCCCOc1ccc(NC(=O)CSc2cccc3cccnc23)cc1`, the IC50 is 0.678 µM.

`COc1ccccc1NC(=O)c1sc2nc(Cc3ccccc3)cc(C(F)(F)F)c2c1N`: the IC50 result was “inactive”.

As for `CCc1ccc(NC(=O)CSc2nnc(-c3n[nH]c4ccccc34)n2-c2ccccc2)cc1`, the IC50 is 2.64 µM.

As to `COc1cccc(-n2c([S-])c(C(=O)Nc3ccc(S(=O)(=O)N4CCOCC4)cc3)[n+]3cc(C(N)=O)ccc23)c1`, the IC50 was > 40 µM (inactive).

With `COc1ccccc1-c1ccc2c(c1)C(C)(Cc1cccc(C#N)c1)C(=O)N2` (stereo unspecified), the IC50 was > 40 µM (inactive).

Regarding `CCn1c(=O)cc(SCC(=O)Nc2ccc(Cl)cc2)c2ccccc21`, the IC50 is 5.59 µM.

Regarding `Cc1ccc2nsnc2c1NC(=O)c1sc2ccccc2c1Cl`, the IC50 is 1.49 µM.

`O=C(Cn1c(=S)[nH]c2ccccc2c1=O)NCCc1ccccc1`: the IC50 is 8.97 µM.

On to `CCOc1ccc2nc(N=Nc3c(O)[nH]c(=S)[nH]c3=O)sc2c1`, for which the IC50 was > 40 µM (inactive).

`CCN1C(=O)/C(=C/c2ccc(N3CCCC3)cc2)NC1=S`: the IC50 was 1.14 µM.

As for `COc1ccc2nc(SCC(=O)NC3CCCC3)c(C)cc2c1`, the IC50 is 4.48 µM.

For `COc1cc(C(=O)Nc2nc(-c3cc(C)ccc3C)c(C)s2)ccc1OCC(=O)Nc1ccc(F)cc1`, the IC50 entry is “inactive”.

With `Cc1cc(-c2cccc([N+](=O)[O-])c2)nc2ccc3ccccc3c12`, the IC50 is 3 µM.

As for `COc1ccc(NC(=O)c2sc3nc(N4CCCC4)c4c(c3c2N)CC(C)(C)OC4)cc1`, the IC50 was > 40 µM (inactive).

Turning to `CCOC(=O)c1sc(NC(=S)NC(=O)C2CCCC2)cc1C`, the IC50 was 1.8 µM.

As for `CN1/C(=C\C=C2/C(=O)Oc3ccccc3C2=O)C(C)(C)c2ccccc21`, the IC50 was 4.74 µM.

For `Cc1cc(=O)oc2cc(OCC(=O)Nc3ccc(S(=O)(=O)N(C)C)cc3)ccc12`, the IC50 is > 40 µM (inactive).

In the case of `Brc1cc(Br)c2ncnc(N3CCCCC3)c2c1`, the IC50 was 0.989 µM.

As to `O=c1oc2ccccc2c(NC(c2ccccc2)c2ccccc2)c1[N+](=O)[O-]`, the IC50 was > 40 µM (inactive).

Take `COc1cc(C(=O)NCc2ccc(-c3nc4ccccc4s3)cc2)cc(OC)c1OC`: the IC50 was > 40 µM (inactive).

Turning to `CCN1/C(=C/C=C/c2oc3ccc(-c4ccccc4)cc3[n+]2CC)Oc2ccc(-c3ccccc3)cc21`, the IC50 was > 40 µM (inactive).
